Here are results for 9 compounds from patent US20250326752A1, “PIPERIDINYL-METHYL-PURINE AMINE SALTS, CRYSTALLINE FORMS, AND THEIR USE IN TREATING MEDICAL DISEASES AND CONDITIONS” (K36 Therapeutics, Inc., priority 2022, published 2025).

As a reminder, the solubility is the dissolved amount per volume that the medium holds.

The nature of series [1]: hygroscopicity by dynamic vapor sorption. It counts as physicochemical. Particulars: transitioned from 0% to 90% relative humidity.
Series [2] is described as follows: water solubility of the crystalline form in phosphate buffer. It is filed as physicochemical. Conditions: for solubility: pH 6.8 (phosphate buffer; 50 mM where stated).
Setting [3] is: aqueous buffer, read-out: water solubility of (S)-1-((R)-3-amino-1-(4-((6-amino-9H-purin-9-yl)methyl)-6-(2,5-difluoro-4-methoxyphenyl)pyridin-3-yl)piperidin-3-yl)-2,2-difluoroethan-1-ol.
The mark [4] stands for this setting: pH 7.0 (phosphate buffer), 37° C., after 30 minutes.

Each structure is given as a SMILES string. Structures can show the parent of a compound that is named as a salt.

As to `COc1cc(F)c(-c2cc(Cn3cnc4c(N)ncnc43)c(N3CCC[C@](N)([C@H](O)C(F)F)C3)cn2)cc1F.Cl` [Example 1, (S)-1-((R)-3-amino-1-(4-((6-amino-9H-purin-9-yl)methyl)-6-(2,5-difluoro-4-methoxyphenyl)pyridin-3-yl)piperidin-3-yl)-2,2-difluoroethan-1-ol Hydrochloric Acid Salt], the “increase in weight (hygroscopicity by dynamic vapor sorption)” value (from here on “increase in weight”) in series [1] was determined as 16%. In series [2] (setting [3]), the solubility worked out at 220 µg/mL.
On to `COc1cc(F)c(-c2cc(Cn3cnc4c(N)ncnc43)c(N3CCC[C@](N)([C@H](O)C(F)F)C3)cn2)cc1F` [Example 2, (S)-1-((R)-3-amino-1-(4-((6-amino-9H-purin-9-yl)methyl)-6-(2,5-difluoro-4-methoxyphenyl)pyridin-3-yl)piperidin-3-yl)-2,2-difluoroethan-1-ol Hydrochloric Acid Salt], for which the “increase in weight” value in series [1] was 1.8%. Besides, the solubility in series [2] (setting [3]) amounted to 210 µg/mL.
On to `COc1cc(F)c(-c2cc(Cn3cnc4c(N)ncnc43)c(N3CCC[C@](N)([C@H](O)C(F)F)C3)cn2)cc1F.Cl` [Example 3, (S)-1-((R)-3-amino-1-(4-((6-amino-9H-purin-9-yl)methyl)-6-(2,5-difluoro-4-methoxyphenyl)pyridin-3-yl)piperidin-3-yl)-2,2-difluoroethan-1-ol Hydrochloric Acid Salt], for which, in series [2] (aqueous buffer, pH 7.0 (phosphate buffer), 37° C., after 30 minutes, read-out: water solubility of (S)-1-((R)-3-amino-1-(4-((6-amino-9H-purin-9-yl)methyl)-6-(2,5-difluoro-4-methoxyphenyl)pyridin-3-yl)piperidin-3-yl)-2,2-difluoroethan-1-ol), the solubility at 30 min is 1170 µg/mL.
For the compound `COc1cc(F)c(-c2cc(Cn3cnc4c(N)ncnc43)c(N3CCC[C@](N)([C@H](O)C(F)F)C3)cn2)cc1F` [Example 4, (S)-1-((R)-3-amino-1-(4-((6-amino-9H-purin-9-yl)methyl)-6-(2,5-difluoro-4-methoxyphenyl)pyridin-3-yl)piperidin-3-yl)-2,2-difluoroethan-1-ol Hydrochloric Acid Salt], in series [2] (setting [4]), the “water solubility of (S)-1-((R)-3-amino-1-(4-((6-amino-9H-purin-9-yl)methyl)-6-(2,5-difluoro-4-methoxyphenyl)pyridin-3-yl)piperidin-3-yl)-2,2-difluoroethan-1-ol” value (“water solubility” for short) was found to be 360 µg/mL.
In the case of `COc1cc(F)c(-c2cc(Cn3cnc4c(N)ncnc43)c(N3CCC[C@](N)([C@H](O)C(F)F)C3)cn2)cc1F` [Example 5, (S)-1-((R)-3-amino-1-(4-((6-amino-9H-purin-9-yl)methyl)-6-(2,5-difluoro-4-methoxyphenyl)pyridin-3-yl)piperidin-3-yl)-2,2-difluoroethan-1-ol Sulfuric Acid Salt], in series [1], the “increase in weight” value came out at 6.0%.
As to `COc1cc(F)c(-c2cc(Cn3cnc4c(N)ncnc43)c(N3CCC[C@](N)([C@H](O)C(F)F)C3)cn2)cc1F` [Example 6, (S)-1-((R)-3-amino-1-(4-((6-amino-9H-purin-9-yl)methyl)-6-(2,5-difluoro-4-methoxyphenyl)pyridin-3-yl)piperidin-3-yl)-2,2-difluoroethan-1-ol Sulfuric Acid Salt], the “water solubility” value in series [2] (setting [4]) came to 780 µg/mL.
In the case of `COc1cc(F)c(-c2cc(Cn3cnc4c(N)ncnc43)c(N3CCC[C@](N)([C@H](O)C(F)F)C3)cn2)cc1F` [Example 8, (S)-1-((R)-3-amino-1-(4-((6-amino-9H-purin-9-yl)methyl)-6-(2,5-difluoro-4-methoxyphenyl)pyridin-3-yl)piperidin-3-yl)-2,2-difluoroethan-1-ol Succinic Acid Salt], in series [2] (setting [4]), the “water solubility” value is 1670 µg/mL.
Consider `COc1cc(F)c(-c2cc(Cn3cnc4c(N)ncnc43)c(N3CCC[C@](N)([C@H](O)C(F)F)C3)cn2)cc1F` [Example 10, Crystalline L-Malic Acid Salt of (S)-1-((R)-3-amino-1-(4-((6-amino-9H-purin-9-yl)methyl)-6-(2,5-difluoro-4-methoxyphenyl)pyridin-3-yl)piperidin-3-yl)-2,2-difluoroethan-1-ol], for which the “water solubility” value in series [2] (setting [4]) worked out at 1530 µg/mL.
Regarding `COc1cc(F)c(-c2cc(Cn3cnc4c(N)ncnc43)c(N3CCC[C@](N)([C@H](O)C(F)F)C3)cn2)cc1F` [Example 11, Crystalline L-Tartaric Acid Salt of (S)-1-((R)-3-amino-1-(4-((6-amino-9H-purin-9-yl)methyl)-6-(2,5-difluoro-4-methoxyphenyl)pyridin-3-yl)piperidin-3-yl)-2,2-difluoroethan-1-ol], in series [2] (setting [4]), the “water solubility” value amounted to 540 µg/mL.
